The source of these data is patent US20250214947A1, “3,4-DIHYDROQUINOXALINE-2-CARBOXIMIDE DERIVATIVE COMPOUND AND PHARMACEUTICAL COMPOSITION COMPRISING SAME FOR PREVENTING OR TREATING CANCER DISEASE” (Cureverse Incorporated, priority 2022, published 2025).

Data set [1] concerns the target T1, HDAC8 (Homo sapiens, UniProt Q9BY41).
T1 construct: purchased BPS bioscience
T1 sequence (Q9BY41 1-377): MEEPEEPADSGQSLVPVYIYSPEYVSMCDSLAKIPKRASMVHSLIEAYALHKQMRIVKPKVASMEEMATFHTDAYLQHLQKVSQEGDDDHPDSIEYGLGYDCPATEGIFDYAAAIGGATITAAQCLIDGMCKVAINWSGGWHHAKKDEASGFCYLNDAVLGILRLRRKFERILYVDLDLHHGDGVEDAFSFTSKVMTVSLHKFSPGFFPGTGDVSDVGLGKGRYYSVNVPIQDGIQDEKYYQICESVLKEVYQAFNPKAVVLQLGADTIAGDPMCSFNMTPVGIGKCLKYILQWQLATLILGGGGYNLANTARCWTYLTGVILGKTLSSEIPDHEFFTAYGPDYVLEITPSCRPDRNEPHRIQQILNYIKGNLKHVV
The experiment in a line: Selective inhibitory effect, HDAC Fluorogenic assay kit, HDAC8. The class given is biochemical. The conditions noted are these: versus HDAC1, 2, 3, 4, 6, 7, 9, 10, 11; 10 μM.
Protocol: (§1) For analysis, HDAC substrate 3 was diluted in buffer to a concentration of 200 μM and used in HDAC 1, 2, 3, 6, and 10 assays, HDAC substrate 2A was diluted in buffer to a concentration of 200 μM and used in HDAC 4, 7, 9, and 11 assays, HDAC substrate 2A was diluted in buffer to a concentration of 20 μM and used in HDAC 8 assays. For the HDAC 11 assay, a dedicated buffer included in the kit was used separately, and the same buffer was used for the remaining assays. The compound of the Example was diluted to 1 mM (1% DMSO concentration) using DMSO to obtain a final concentration of 10 μM, and prepared by diluting 1/10 with assay buffer. In a 96-well black round-bottom plate, 5 μL of the diluted compound of the Example, 5 μL of the diluted HDAC substrate, 5 μL of BSA (1 mg/ml), 5 μL of the HDAC enzyme diluted to the appropriate concentration, and 30 μL of assay buffer were added, and the enzyme reaction was performed at 37° C. for 30 minutes. […] Afterwards, 50 μL of 2×HDAC developer was added to each well. After reacting for 15 minutes at room temperature, the fluorescence values at excitation wavelengths of 350-380 nm and emission wavelengths of 440-460 nm were measured using a microplate reader (Synergy Neo).

Data set [2] is described as follows: Body weight of mice during drug administration, liver cancer model. The class given is in vivo, nude mice. The following applies: 50 mg/kg once a day; drug administration period; FIG. 7D. As to the method: In addition, a liver cancer model was established by subcutaneously transplanting Huh-7 cell lines into nude mice. After establishing the liver cancer model, the mice were divided into two groups (group 1: vehicle administration group, group 2: 50 mg/kg Example 27 compound administration group). The drug was administered once a day for 12 times. To evaluate therapeutic efficacy, tumor volume was measured before drug administration and on days 4, 7, 10, 13, and 15 after drug administration. Tumor volume (mm^3) was calculated as follows (tumor volume (mm^3)=(A×B^2)/2, where A=tumor long axis, B=tumor short axis). Body weight was measured before administration and on days 4, 7, 10, 13, and 15 after drug administration during the drug administration period. Tumor was excised on day 15 after drug treatment and body weight was measured.

The target in a further data set is T2, HDAC10 (Homo sapiens, UniProt Q969S8).
T2 sequence (Q969S8 1-669): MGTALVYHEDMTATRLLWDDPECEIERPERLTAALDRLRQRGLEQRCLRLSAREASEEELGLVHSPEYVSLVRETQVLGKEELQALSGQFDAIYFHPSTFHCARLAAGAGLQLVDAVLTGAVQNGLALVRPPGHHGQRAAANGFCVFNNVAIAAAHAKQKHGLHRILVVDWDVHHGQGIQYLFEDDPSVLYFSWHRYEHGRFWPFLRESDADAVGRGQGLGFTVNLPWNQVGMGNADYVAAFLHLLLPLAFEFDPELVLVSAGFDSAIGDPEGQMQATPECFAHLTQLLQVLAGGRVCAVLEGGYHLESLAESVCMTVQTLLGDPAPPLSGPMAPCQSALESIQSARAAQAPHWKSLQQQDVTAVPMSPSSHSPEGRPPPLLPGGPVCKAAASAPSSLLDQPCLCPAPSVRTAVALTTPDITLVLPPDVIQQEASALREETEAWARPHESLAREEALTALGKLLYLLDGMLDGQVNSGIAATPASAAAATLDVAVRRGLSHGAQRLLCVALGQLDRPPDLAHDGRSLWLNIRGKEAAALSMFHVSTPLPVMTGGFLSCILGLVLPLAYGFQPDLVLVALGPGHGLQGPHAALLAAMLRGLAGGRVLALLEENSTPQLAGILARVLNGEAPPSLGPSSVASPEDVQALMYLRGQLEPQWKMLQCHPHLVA
In words: Selective inhibitory effect, HDAC Fluorogenic assay kit, HDAC10. The following applies: read-out: HDAC10 enzyme activity (%).

Another data set deals with HDAC1 (Homo sapiens, UniProt Q13547). The experiment in a line: Selective inhibitory effect, HDAC Fluorogenic assay kit, HDAC1. The conditions noted are these: read-out: HDAC1 enzyme activity (%).
HDAC1, sequence (Q13547 whole entry): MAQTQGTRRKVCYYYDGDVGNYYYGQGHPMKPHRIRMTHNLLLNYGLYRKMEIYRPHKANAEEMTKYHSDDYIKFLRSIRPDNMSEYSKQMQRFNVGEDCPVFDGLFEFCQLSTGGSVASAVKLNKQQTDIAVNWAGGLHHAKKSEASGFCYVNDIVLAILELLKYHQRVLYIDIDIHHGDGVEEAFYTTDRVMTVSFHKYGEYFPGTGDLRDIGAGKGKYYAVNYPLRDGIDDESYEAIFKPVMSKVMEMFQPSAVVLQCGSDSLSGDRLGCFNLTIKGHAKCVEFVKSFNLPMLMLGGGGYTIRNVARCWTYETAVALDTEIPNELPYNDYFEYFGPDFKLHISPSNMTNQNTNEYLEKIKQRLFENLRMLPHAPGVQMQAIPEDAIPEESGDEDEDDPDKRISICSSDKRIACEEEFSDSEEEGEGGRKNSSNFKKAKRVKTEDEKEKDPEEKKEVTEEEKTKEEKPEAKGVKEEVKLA
Data set [3] concerns the target T1, HDAC8. The experiment in a line: HDAC8 inhibitory activity analysis (in vitro), RFU analysis, HDAC Fluorogenic assay kit. The class given is biochemical. The following applies: 10 μM; compared with TSA or SAHA.
Protocol: The compound of the Example was diluted to 1 mM (1% DMSO concentration) using DMSO to obtain a final concentration of 10 μM, and prepared by diluting 1/10 with assay buffer. In a 96-well black round-bottom plate, 5 μL of the diluted compound of the Example, 5 μL of the diluted HDAC substrate 2A, 5 μL of BSA (1 mg/mL), 5 µL of the HDAC8 enzyme diluted to an appropriate concentration, and 30 μL of assay buffer were added, and the enzyme reaction was performed at 37° C. for 30 minutes. […] Afterwards, 50 μL of 2×HDAC developer was added to each well. After reacting for 15 minutes at room temperature, the fluorescence values at excitation wavelengths of 350-380 nm and emission wavelengths of 440-460 nm were measured using a microplate reader (Synergy Neo).
Another data set concerns the target HDAC3 (Homo sapiens, UniProt O15379). The experiment in a line: Selective inhibitory effect, HDAC Fluorogenic assay kit, HDAC3. The conditions noted are these: read-out: HDAC3 enzyme activity (%).
For the next data set, the target named is HDAC2 (Homo sapiens, UniProt Q92769). In words: Selective inhibitory effect, HDAC Fluorogenic assay kit, HDAC2. The conditions noted are these: read-out: HDAC2 enzyme activity (%).
HDAC2, sequence (Q92769 whole entry): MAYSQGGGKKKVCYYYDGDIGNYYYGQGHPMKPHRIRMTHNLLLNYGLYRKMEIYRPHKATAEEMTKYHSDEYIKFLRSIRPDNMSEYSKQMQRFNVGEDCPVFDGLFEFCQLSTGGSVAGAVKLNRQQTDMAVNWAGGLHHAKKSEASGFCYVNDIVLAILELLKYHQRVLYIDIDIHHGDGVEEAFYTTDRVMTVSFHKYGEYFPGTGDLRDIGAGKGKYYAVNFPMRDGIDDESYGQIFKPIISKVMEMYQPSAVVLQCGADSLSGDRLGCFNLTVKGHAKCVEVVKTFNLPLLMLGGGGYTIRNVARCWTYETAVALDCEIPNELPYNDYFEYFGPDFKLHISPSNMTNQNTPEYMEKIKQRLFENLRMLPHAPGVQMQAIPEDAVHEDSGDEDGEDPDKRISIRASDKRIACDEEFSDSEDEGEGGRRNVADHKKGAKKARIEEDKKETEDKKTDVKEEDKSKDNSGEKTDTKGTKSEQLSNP

HDAC3, sequence (O15379 whole entry): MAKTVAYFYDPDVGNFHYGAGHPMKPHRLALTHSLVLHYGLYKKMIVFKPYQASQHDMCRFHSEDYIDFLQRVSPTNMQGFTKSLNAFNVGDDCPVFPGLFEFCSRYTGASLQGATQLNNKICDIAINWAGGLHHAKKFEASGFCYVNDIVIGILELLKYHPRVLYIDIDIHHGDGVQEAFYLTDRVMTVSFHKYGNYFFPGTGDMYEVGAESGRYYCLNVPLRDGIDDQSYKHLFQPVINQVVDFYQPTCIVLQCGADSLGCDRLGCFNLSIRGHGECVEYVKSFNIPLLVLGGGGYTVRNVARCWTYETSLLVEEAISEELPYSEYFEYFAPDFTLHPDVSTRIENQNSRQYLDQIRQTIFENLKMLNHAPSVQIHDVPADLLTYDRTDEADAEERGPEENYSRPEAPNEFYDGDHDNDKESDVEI
HDAC3, sequence (Q9Y618 395-489 partner limits assumed): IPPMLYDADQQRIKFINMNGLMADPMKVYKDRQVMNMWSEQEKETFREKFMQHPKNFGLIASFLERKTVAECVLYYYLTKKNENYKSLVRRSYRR
Protocol for HDAC10: as §1
Protocol for HDAC2: as §1
Protocol for HDAC3: as §1

In the case of `Cc1cc2nc(C(=O)NCCc3c[nH]c4ccc(O)cc34)c(=O)n(C[C@H](O)[C@H](O)[C@H](O)CO)c2cc1C` [Example 27, N-(2-(5-hydroxy-1H-indol-3-yl)ethyl)-6,7-dimethyl-3-oxo-4-((2S,3S,4R)-2,3,4,5-tetrahydroxypentyl)-3,4-dihydroquinoxaline-2-carboxamide], the “selective inhibitory effect on HDAC8 (in words)” value at HDAC8 [1] was “selective and excellent inhibitory activity only against HDAC8”. In data set [2], the “body weight (in words)” value is given as “No rapid weight loss was observed”. Further, the remaining activity at 10 µM was 87.2% at HDAC10, 76.2% at HDAC1, 73.1% at HDAC3 and 91.2% on HDAC2. Besides, on HDAC8 [3], the “inhibitory activity against HDAC8 (in words)” value is given as “inhibitory activity similar to TSA or SAHA”.
